Results: ChEMBL document CHEMBL1152855, “Regioselective synthesis of dispiro[1H-indene-2,3'-pyrrolidine-2',3''-[3H]indole]-1,2''(1''H)-diones of potential anti-tumor properties” (2009)

Assays:
Assay type in all cases: functional
SK-MEL-28 = assay: Growth inhibition of human SK-MEL-28 cells at 10 uM after 48 hrs by sulforhodamine B assay; conditions: SK-MEL-28, 48 h, values are per cent of control
K562 = assay: Growth inhibition of human K562 cells at 10 uM after 48 hrs by sulforhodamine B assay; conditions: K562, 48 h, values are per cent of control
SF-295 = assay: Growth inhibition of human SF295 cells at 10 uM after 48 hrs by sulforhodamine B assay; conditions: SF-295, 48 h, values are per cent of control
MDA-MB-435 = assay: Growth inhibition of human MDA-MB-435 cells at 10 uM after 48 hrs by sulforhodamine B assay; conditions: MDA-MB-435, 48 h, values are per cent of control
OVCAR-4 = assay: Growth inhibition of human OVCAR4 cells at 10 uM after 48 hrs by sulforhodamine B assay; conditions: OVCAR-4, 48 h, values are per cent of control
HOP-62 = assay: Growth inhibition of human HOP62 cells at 10 uM after 48 hrs by sulforhodamine B assay; conditions: HOP-62, 48 h, values are per cent of control
SNB-75 = assay: Growth inhibition of human SNB75 cells at 10 uM after 48 hrs by sulforhodamine B assay; conditions: SNB-75, 48 h, values are per cent of control
HOP-92 = assay: Growth inhibition of human HOP92 cells at 10 uM after 48 hrs by sulforhodamine B assay; conditions: HOP-92, 48 h, read-out: GI
NCI-H522 = assay: Growth inhibition of human NCI-H522 cells at 10 uM after 48 hrs by sulforhodamine B assay; conditions: NCI-H522, 48 h, values are per cent of control
RPMI-8226 = assay: Growth inhibition of human RPMI8226 cells at 10 uM after 48 hrs by sulforhodamine B assay; conditions: RPMI-8226, 48 h, read-out: GI
UACC-257 = assay: Growth inhibition of human UACC257 cells at 10 uM after 48 hrs by sulforhodamine B assay; conditions: UACC-257, 48 h, values are per cent of control
SF-539 = assay: Growth inhibition of human SF539 cells at 10 uM after 48 hrs by sulforhodamine B assay; conditions: SF-539, 48 h, values are per cent of control
OVCAR-5 = assay: Growth inhibition of human OVCAR5 cells at 10 uM after 48 hrs by sulforhodamine B assay; conditions: OVCAR-5, 48 h, values are per cent of control
KM12 = assay: Growth inhibition of human KM12 cells at 10 uM after 48 hrs by sulforhodamine B assay; conditions: KM12, 48 h, values are per cent of control
[1] = Growth inhibition of human Hs 578T cells at 10 uM after 48 hrs by sulforhodamine B assay; conditions: values are per cent of control
Rattus norvegicus [2] = assay: Antiinflammatory activity against carrageenan-induced paw edema in Wister albino rat assessed as inhibition of edema at 50 mg/kg, ip administered 1 hr prior to carrageenan challenge measured after 1 hr relative to control; conditions: route intraperitoneal
U-251 = assay: Growth inhibition of human U251 cells at 10 uM after 48 hrs by sulforhodamine B assay; conditions: U-251, 48 h, values are per cent of control
Rattus norvegicus [3] = assay: Antiinflammatory activity against carrageenan-induced paw edema in Wister albino rat assessed as inhibition of edema at 50 mg/kg, ip administered 1 hr prior to carrageenan challenge measured after 3 hrs relative to control; conditions: route intraperitoneal
Malme-3M = assay: Growth inhibition of human MALME-3M cells at 10 uM after 48 hrs by sulforhodamine B assay; conditions: values are per cent of control
MDA-MB-231 = assay: Growth inhibition of human MDA-MB-231 cells at 10 uM after 48 hrs by sulforhodamine B assay; conditions: MDA-MB-231, 48 h, values are per cent of control
Rattus norvegicus [4] = assay: Antiinflammatory activity against carrageenan-induced paw edema in Wister albino rat assessed as inhibition of edema at 50 mg/kg, ip administered 1 hr prior to carrageenan challenge measured after 4 hrs relative to control; conditions: route intraperitoneal
NCI-H322M = assay: Growth inhibition of human NCI-H322M cells at 10 uM after 48 hrs by sulforhodamine B assay; conditions: values are per cent of control
SK-MEL-2 = assay: Growth inhibition of human SK-MEL-2 cells at 10 uM after 48 hrs by sulforhodamine B assay; conditions: SK-MEL-2, 48 h, read-out: GI
UACC-62 = assay: Growth inhibition of human UACC62 cells at 10 uM after 48 hrs by sulforhodamine B assay; conditions: UACC-62, 48 h, values are per cent of control
HT-29 = assay: Growth inhibition of human HT-29 cells at 10 uM after 48 hrs by sulforhodamine B assay; conditions: HT-29, 48 h, values are per cent of control
A498 = assay: Growth inhibition of human A498 cells at 10 uM after 48 hrs by sulforhodamine B assay; conditions: A498, 48 h, values are per cent of control
HCT-116 = assay: Growth inhibition of human HCT116 cells at 10 uM after 48 hrs by sulforhodamine B assay; conditions: HCT-116, 48 h, values are per cent of control
MCF7 = assay: Growth inhibition of human MCF7 cells at 10 uM after 48 hrs by sulforhodamine B assay; conditions: MCF7, 48 h, values are per cent of control
CAKI-1 = assay: Growth inhibition of human Caki1 cells at 10 uM after 48 hrs by sulforhodamine B assay; conditions: CAKI-1, 48 h, values are per cent of control
ACHN = assay: Growth inhibition of human ACHN cells at 10 uM after 48 hrs by sulforhodamine B assay; conditions: values are per cent of control
786-0 = assay: Growth inhibition of human 786-0 cells at 10 uM after 48 hrs by sulforhodamine B assay; conditions: 786-0, 48 h, values are per cent of control
PC-3 = assay: Growth inhibition of human PC3 cells at 10 uM after 48 hrs by sulforhodamine B assay; conditions: PC-3, 48 h, values are per cent of control
LOX IMVI = assay: Growth inhibition of human LOXIMVI cells at 10 uM after 48 hrs by sulforhodamine B assay; conditions: values are per cent of control
CCRF-CEM = assay: Growth inhibition of human CCRF-CEM cells at 10 uM after 48 hrs by sulforhodamine B assay; conditions: values are per cent of control
SN12C = assay: Growth inhibition of human SN12C cells at 10 uM after 48 hrs by sulforhodamine B assay; conditions: values are per cent of control
HCT-15 = assay: Growth inhibition of human HCT15 cells at 10 uM after 48 hrs by sulforhodamine B assay; conditions: HCT-15, 48 h, values are per cent of control
NCI-H460 = assay: Growth inhibition of human NCI-H460 cells at 10 uM after 48 hrs by sulforhodamine B assay; conditions: NCI-H460, 48 h, values are per cent of control
OVCAR-8 = assay: Growth inhibition of human OVCAR8 cells at 10 uM after 48 hrs by sulforhodamine B assay; conditions: OVCAR-8, 48 h, read-out: GI

Compound `[3H]N1C(=O)[C@@]2(c3ccccc31)N(C)C[C@@H](c1ccc(OC)cc1)[C@@]21Cc2ccccc2C1=O` has a growth, % of control at 10 µM (SK-MEL-28) of 108%, a growth, % of control at 10 µM (K562) of 93.9% and a growth, % of control at 10 µM (SF-295) of 103%. The growth, % of control at 10 µM (MDA-MB-435) was 124%, the growth, % of control at 10 µM (OVCAR-4) was 118% and the growth, % of control at 10 µM (HOP-62) was 100%. For the same compound, the growth, % of control at 10 µM (SNB-75) was 102%, the inhibition of growth at 10 µM (HOP-92) was 62.5% and the growth, % of control at 10 µM (NCI-H522) was 91%. The inhibition of growth at 10 µM (RPMI-8226) was 66.8%, the growth, % of control at 10 µM (UACC-257) was 99.3% and the growth, % of control at 10 µM (SF-539) was 101%. It also gave a growth, % of control at 10 µM (OVCAR-5) of 106%, a growth, % of control at 10 µM (KM12) of 95.3% and a growth, % of control at 10 µM [1] of 16.8%. For the same compound, the inhibition in vivo at 50 mg/kg (Rattus norvegicus [2]) was 41.2%, the growth, % of control at 10 µM (U-251) was 96.7% and the inhibition in vivo at 50 mg/kg (Rattus norvegicus [3]) was 20.5%. The growth, % of control at 10 µM (Malme-3M) was 132%, the growth, % of control at 10 µM (MDA-MB-231) was 74.4% and the inhibition in vivo at 50 mg/kg (Rattus norvegicus [4]) was 21.8%. The growth, % of control at 10 µM (NCI-H322M) was 111%, the inhibition of growth at 10 µM (SK-MEL-2) was 8.7% and the growth, % of control at 10 µM (UACC-62) was 71.8%. For the same compound, the growth, % of control at 10 µM (HT-29) was 138%, the growth, % of control at 10 µM (A498) was 105% and the growth, % of control at 10 µM (HCT-116) was 92.6%. The growth, % of control at 10 µM (MCF7) was 120%, the growth, % of control at 10 µM (CAKI-1) was 85.7% and the growth, % of control at 10 µM (ACHN) was 98.1%. It also gave a growth, % of control at 10 µM (786-0) of 102%, a growth, % of control at 10 µM (PC-3) of 66% and a growth, % of control at 10 µM (LOX IMVI) of 80.5%. The growth, % of control at 10 µM (CCRF-CEM) was 87.3%, the growth, % of control at 10 µM (SN12C) was 105% and the growth, % of control at 10 µM (HCT-15) was 107%. It also gave a growth, % of control at 10 µM (NCI-H460) of 107% and an inhibition of growth at 10 µM (OVCAR-8) of 55.3%.
Work on `[3H]C([3H])([3H])N1C(=O)[C@@]2(c3ccccc31)N(C)C[C@@H](c1ccc(Cl)cc1)[C@@]21Cc2ccccc2C1=O` yielded a growth, % of control at 10 µM (SK-MEL-28) of 90.6%, a growth, % of control at 10 µM (K562) of 39.5% and a growth, % of control at 10 µM (SF-295) of 65%. It also gave a growth, % of control at 10 µM (MDA-MB-435) of 101%, a growth, % of control at 10 µM (OVCAR-4) of 72.5% and a growth, % of control at 10 µM (HOP-62) of 88.1%. The growth, % of control at 10 µM (SNB-75) was 75.3%, the inhibition of growth at 10 µM (HOP-92) was 25.1% and the growth, % of control at 10 µM (NCI-H522) was 77.3%. The inhibition of growth at 10 µM (RPMI-8226) was 13.4%, the growth, % of control at 10 µM (UACC-257) was 42.6% and the growth, % of control at 10 µM (SF-539) was 90.5%. For the same compound, the growth, % of control at 10 µM (OVCAR-5) was 95.4%, the growth, % of control at 10 µM (KM12) was 68.7% and the growth, % of control at 10 µM [1] was 55.2%. The inhibition in vivo at 50 mg/kg (Rattus norvegicus [2]) was 47.2%, the growth, % of control at 10 µM (U-251) was 93.1% and the inhibition in vivo at 50 mg/kg (Rattus norvegicus [3]) was 9.4%. For the same compound, the growth, % of control at 10 µM (Malme-3M) was 102%, the growth, % of control at 10 µM (MDA-MB-231) was 79.3% and the inhibition in vivo at 50 mg/kg (Rattus norvegicus [4]) was 8.5%. It also gave a growth, % of control at 10 µM (NCI-H322M) of 106%, an inhibition of growth at 10 µM (SK-MEL-2) of -11.1% and a growth, % of control at 10 µM (UACC-62) of 48.4%. It also gave a growth, % of control at 10 µM (HT-29) of 46.1%, a growth, % of control at 10 µM (A498) of 82.3% and a growth, % of control at 10 µM (HCT-116) of 24.3%. For the same compound, the growth, % of control at 10 µM (MCF7) was 91.8%, the growth, % of control at 10 µM (CAKI-1) was 71.8% and the growth, % of control at 10 µM (ACHN) was 82.8%. It also gave a growth, % of control at 10 µM (786-0) of 86.2%, a growth, % of control at 10 µM (PC-3) of 38.3% and a growth, % of control at 10 µM (LOX IMVI) of 72.2%. For the same compound, the growth, % of control at 10 µM (CCRF-CEM) was 108%, the growth, % of control at 10 µM (SN12C) was 86.5% and the growth, % of control at 10 µM (HCT-15) was 68.3%. For the same compound, the growth, % of control at 10 µM (NCI-H460) was 67.1% and the inhibition of growth at 10 µM (OVCAR-8) was 60.9%.
